US5358707A, “Oxidized variants of GM-CSF” (Schering Corporation, priority 1992, dated 1994)
Where “and” joins values, the source holds several entries; their conditions need not be identical. Equal values may be shown once.

Tests used:
[1] = Analytical isoelectric focusing; type: physicochemical
KG-1 cells = test: KG-1 Cell Bioassay (MTT, cell growth stimulation); type: cell-based, human
Procedure: Briefly, cultures of about 1×10^4 cells were incubated with dilutions of the various proteins in Iscove's modified Dulbecco's medium at 37° C. for 6 days. The tetrazolium salt MTT (3-[4,5-Dimethylthiazol-2-yl]-2,5-diphenyltetrazolium bromide; Thiazolyl blue) was then added at a final concentration of 0.5 mg/ml, and incubation was continued for another 4 hours. MTT is cleaved by mitochondrial dehydrogenase enzymes to produce a colored reaction product, formazan, the quantity of which is directly related to LOG2 cell concentration.

## GM-CSF: Unoxidized recombinant mature human GM-CSF produced in E. coli; designated V0 when isolated from the secretory expression extract
[1]
  pI: about 5.3
KG-1 cells; KG-1 cells, 6 days, MTT, titer from dilution producing 50% maximal cell growth stimulation vs standard GM-CSF, MET-O and V variants analysed at different times
  Biological Activity (Units/mg × 10^-9): 2.9 Units/mg × 10^-9 and 5.3 Units/mg × 10^-9
KG-1 cells; percentage of the unoxidized GM-CSF specific bioactivity of the same run
  Biological Activity (% GM-CSF Activity): 100%
